In series [1] the target is T1, BSA (Bos taurus, UniProt P02769).
T1 construct: gene ALB
More on the design: Intact protein LC/MS covalent labelling, fragments in pools of five, 200 uM each, 4 °C. Conditions: 24 h, 4 °C, pool of five; 200 µM; covalent.

For series [2], the target named is T2, NUDT7 (Homo sapiens, UniProt P0C024).
T2 construct: residues 14-235, E. coli, pNIC28-Bsa4, N-terminal His6 tag removed by TEV, construct 26672 Da
Also noted: Intact protein LC/MS covalent labelling, fragments in pools of five, 200 uM each, 4 °C. Conditions: 24 h, 4 °C, pool of five; 200 µM; covalent.

Series [3] concerns the target T3, OTUB2 (OTUB2A) (Homo sapiens, UniProt Q96DC9).
T3 construct: full length residues 1-234, E. coli BL21(DE3)-R3, His tag removed by TEV, construct 27312 Da
T3 sequence (Q96DC9 1-234): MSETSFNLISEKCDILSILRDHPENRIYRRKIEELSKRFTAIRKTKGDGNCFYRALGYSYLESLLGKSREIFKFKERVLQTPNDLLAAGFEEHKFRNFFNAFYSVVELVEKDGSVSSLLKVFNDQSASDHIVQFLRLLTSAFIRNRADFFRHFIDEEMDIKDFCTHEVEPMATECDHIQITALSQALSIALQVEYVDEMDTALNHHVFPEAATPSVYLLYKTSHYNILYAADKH
Also noted: Intact protein LC/MS covalent labelling, fragments in pools of five, 200 uM each, 4 °C. Conditions: 24 h, 4 °C, pool of five; 200 µM; covalent.

For series [4], the target named is T4, PCAF (Homo sapiens, UniProt Q92831).
T4 construct: gene KAT2B
Also noted: Intact protein LC/MS covalent labelling, fragments in pools of five, 200 uM each, 4 °C. Conditions: 24 h, 4 °C, pool of five; 200 µM; covalent.

Series [5] can be described thus: in vitro. Also noted: species or system CCD841, HEK293. To be noted: human, hb2 cells, read-out: HB-2 Cells Viability (%).
A short description of series [6]: in vitro. To be noted: human, ccd841 cells. More on the design: species or system HB2, HEK293.
A short description of series [7]: in vitro. More on the design: species or system HB2, CCD841. To be noted: human, hek293 cells.

What is called viability is a read-out of living cells in per cent, often relative to untreated cells.

Structures are written as SMILES. Where two headings read alike, the source gives them in different places.

T4 sequence (Q92831 whole entry): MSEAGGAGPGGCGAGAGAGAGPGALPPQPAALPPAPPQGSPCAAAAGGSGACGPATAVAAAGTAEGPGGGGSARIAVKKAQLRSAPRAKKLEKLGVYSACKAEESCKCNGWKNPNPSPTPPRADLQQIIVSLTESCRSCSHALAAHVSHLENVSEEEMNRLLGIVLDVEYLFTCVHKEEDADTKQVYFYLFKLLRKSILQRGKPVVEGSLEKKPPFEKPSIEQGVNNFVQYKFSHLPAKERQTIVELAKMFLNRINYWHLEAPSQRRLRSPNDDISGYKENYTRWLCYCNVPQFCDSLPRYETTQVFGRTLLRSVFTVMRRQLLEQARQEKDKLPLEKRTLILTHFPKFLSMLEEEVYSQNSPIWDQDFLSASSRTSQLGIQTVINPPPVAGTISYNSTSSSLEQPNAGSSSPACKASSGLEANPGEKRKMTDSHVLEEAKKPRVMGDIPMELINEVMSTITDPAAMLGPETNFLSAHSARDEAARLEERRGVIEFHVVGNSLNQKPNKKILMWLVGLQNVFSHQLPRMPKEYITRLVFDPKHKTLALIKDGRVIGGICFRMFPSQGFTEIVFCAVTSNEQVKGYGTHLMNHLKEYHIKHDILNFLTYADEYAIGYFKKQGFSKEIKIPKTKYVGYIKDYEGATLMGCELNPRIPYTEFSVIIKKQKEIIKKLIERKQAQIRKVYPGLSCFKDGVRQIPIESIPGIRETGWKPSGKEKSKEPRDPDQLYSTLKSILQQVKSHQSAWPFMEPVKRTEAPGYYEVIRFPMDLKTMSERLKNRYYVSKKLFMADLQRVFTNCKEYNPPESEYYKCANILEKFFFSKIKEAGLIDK
T1 sequence (P02769 whole entry): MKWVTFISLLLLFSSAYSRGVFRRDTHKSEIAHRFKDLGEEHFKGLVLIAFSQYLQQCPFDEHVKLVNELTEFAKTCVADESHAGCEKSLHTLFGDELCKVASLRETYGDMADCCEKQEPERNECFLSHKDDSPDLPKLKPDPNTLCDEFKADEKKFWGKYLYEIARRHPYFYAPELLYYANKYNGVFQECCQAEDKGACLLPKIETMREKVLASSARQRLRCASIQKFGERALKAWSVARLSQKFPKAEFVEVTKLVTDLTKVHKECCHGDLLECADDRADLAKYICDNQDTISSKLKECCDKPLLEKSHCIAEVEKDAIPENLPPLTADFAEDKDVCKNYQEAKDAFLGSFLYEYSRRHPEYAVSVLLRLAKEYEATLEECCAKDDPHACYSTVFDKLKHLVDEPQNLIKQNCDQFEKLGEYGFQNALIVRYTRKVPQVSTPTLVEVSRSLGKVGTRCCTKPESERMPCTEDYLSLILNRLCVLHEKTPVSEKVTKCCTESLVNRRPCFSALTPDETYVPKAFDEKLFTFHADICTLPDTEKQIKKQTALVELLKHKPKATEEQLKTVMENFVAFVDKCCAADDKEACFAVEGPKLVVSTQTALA
T2 sequence (P0C024 14-235): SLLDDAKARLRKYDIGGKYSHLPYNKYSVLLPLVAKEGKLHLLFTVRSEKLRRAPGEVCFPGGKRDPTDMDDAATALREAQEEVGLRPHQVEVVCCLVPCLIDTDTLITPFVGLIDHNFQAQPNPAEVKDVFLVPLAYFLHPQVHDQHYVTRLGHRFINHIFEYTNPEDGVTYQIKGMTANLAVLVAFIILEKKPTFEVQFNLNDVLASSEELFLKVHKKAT

In turn, `C=CC(=O)N1CCCC(c2ncc3n2CCCC3)C1` (centres unmarked) [PCM-0103042] gave a BSA in series [1] of 0.11. In series [2], this compound gave an NUDT7 of 0. Also, in series [3], the OTUB2 came to 0. The PCAF in series [4] worked out at 0. Besides, the viability at 48 h, 10 µM in series [5] is 95.6%; in series [6] it was 108%; in series [7] it was 97.1%.
`COc1ccc(C)cc1NC(=O)CCl` [PCM-0103043] yielded a BSA in series [1] of 0. Also, the NUDT7 in series [2] was determined as 0.06. Further, the OTUB2 in series [3] is on record as 0.27. The PCAF in series [4] is 0. For the same compound, the viability at 48 h, 10 µM in series [5] was 81.3%; in series [6] it was 79.1%; in series [7], 63.7%.
The compound `C=CC(=O)NCc1c2c(nn1C)CCCC2` [PCM-0103044] displayed a BSA in series [1] of 0. The NUDT7 in series [2] was determined as 0. This compound came in with an OTUB2 in series [3] of 0.08. The PCAF in series [4] is listed as 0. Further, the results for the viability at 48 h, 10 µM in series [5], in series [6] and in series [7] were 97.2%, 98.1% and 74.2%, respectively.
`O=C(CCl)NC1CCOCC1` [PCM-0103045]: the BSA in series [1] came out at 0. Also, the NUDT7 in series [2] worked out at 0. In series [3], this compound registered an OTUB2 of 0. In series [4], this compound showed a PCAF of 0. Besides, the viability at 48 h, 10 µM in series [5] was determined as 100%; in series [6], 77.7%; in series [7], 110%.
For the compound `CCC1c2ccsc2CCN1C(=O)CCl` (centres unmarked) [PCM-0103051], the BSA in series [1] is 0. For the same compound, the NUDT7 in series [2] is listed as 0.3. This compound came in with an OTUB2 in series [3] of 0. For the same compound, the PCAF in series [4] stood at 0. Further, the viability at 48 h, 10 µM in series [5] stood at 13.5%; in series [6] it was 14%; in series [7], 6%.
Regarding `Cc1nc(-c2ccc(C)c(NC(=O)CCl)c2)n[nH]1` [PCM-0103052], the BSA in series [1] came to 0. In series [2], this compound showed an NUDT7 of 0.12. The compound also returned an OTUB2 in series [3] of 0.09. This compound showed a PCAF in series [4] of 0. Moreover, the viability at 48 h, 10 µM in series [5] came out at 57%; in series [6], 43.4%; in series [7], 39.1%.
In series [1], `C=CC(=O)NC1(C(=O)N2CCN(C)CC2)CCCC1` [PCM-0103054] gave a BSA of 0.08. In series [2], this compound came in with an NUDT7 of 0. This compound also registered an OTUB2 in series [3] of 0. In series [4], the PCAF was 0. Moreover, the viability at 48 h, 10 µM in series [5] was 99.9%; in series [6] it was 109%; in series [7] it was 110%.
As to `Cc1cc(NC(=O)CCl)n(C(C)(C)C)n1` [PCM-0103057], the BSA in series [1] stood at 0. In addition, the NUDT7 in series [2] turned out to be 0. In series [3], this compound returned an OTUB2 of 0. The same compound displayed a PCAF in series [4] of 0. Also, the viability at 48 h, 10 µM stood at 76.3% in series [5], 61.7% in series [6] and 58.6% in series [7].
Compound `C=CC(=O)NC1CCN(C(=O)NCC)C1` (centres unmarked) [PCM-0103058] registered a BSA in series [1] of 0. Besides, in series [2], the NUDT7 was 0. In series [3], this compound displayed an OTUB2 of 0. The same compound returned a PCAF in series [4] of 0. The viability at 48 h, 10 µM was 94.4% in series [5], 93.3% in series [6] and 109% in series [7].
In series [1], `C=CC(=O)N1CC(Oc2ccc(C#N)cc2)C1` [PCM-0103059] gave a BSA of 0. The same compound had an NUDT7 in series [2] of 0. The OTUB2 in series [3] is given as 0.07. Also, in series [4], the PCAF turned out to be 0. In addition, the viability at 48 h, 10 µM amounted to 98.1% in series [5], 90.8% in series [6] and 73.3% in series [7].
As for `O=C(CCl)NNC(=O)C1CCC1` [PCM-0103061], the BSA in series [1] stood at 0. This compound also registered an NUDT7 in series [2] of 0.28. The compound also came in with an OTUB2 in series [3] of 0.14. The same compound yielded a PCAF in series [4] of 0. The viability at 48 h, 10 µM in series [5] amounted to 8.2%; in series [6] it was 30.9%; in series [7] it was 2.3%.

The record behind these values is publication PMC6556873, “Rapid Covalent-Probe Discovery by Electrophile-Fragment Screening” (Journal of the American Chemical Society, 2019).
